Among the data in article PMC8286840, “Identifying SARS-CoV-2 antiviral compounds by screening for small molecule inhibitors of Nsp3 papain-like protease” (Biochemical Journal, 2021) are remaining activity values, retold here.

Where a name gives a salt, the structure may show the parent alone. Read-outs that look alike come from different tables or passages of the source.

For assay [1], the target named is T1, SARS-CoV-2 PLpro (nsp3 1564–1878) (Severe acute respiratory syndrome coronavirus 2, UniProt P0DTD1). The assay can be described thus: biochemical. More on the design: FRET-quenched peptide (Pro3) cleavage by PLpro, 10 min pre-incubation, slope over 20 min, normalised to no-compound control. Conditions: high concentration screen, read-out: % of control remaining.

In assay [2] the target is T1, SARS-CoV-2 PLpro (nsp3 1564–1878). The assay can be described thus: biochemical. Details: FRET-quenched peptide (Pro3) cleavage by PLpro, 10 min pre-incubation, slope over 20 min, normalised to no-compound control. To be noted: low concentration screen, read-out: % of control remaining.

For `C=CCN1CCCC1CNC(=O)c1cc(S(N)(=O)=O)cc(OC)c1OC` (stereo not shown) [Veralipride], the remaining activity at 3.75 µM in assay [1] (Well no.=7715) came to 97.9%. For the same compound, the remaining activity at 1.25 µM in assay [2] (Well no.=7715) was 93.1%.
Consider `COc1ccc(CCN(C)CCCC(C#N)(c2ccc(OC)c(OC)c2)C(C)C)cc1OC` (stereo not shown) [Verapamil], for which the remaining activity at 3.75 µM in assay [1] (Well no.=1721) was determined as 100%. Moreover, the remaining activity at 1.25 µM in assay [2] (Well no.=1721) stood at 100%.
Turning to `Cc1c([C@H](C)[C@@H]2NC[C@@H](C)C[C@H]2O)ccc2c1C[C@H]1[C@H]2CC=C2C[C@@H](O)CC[C@@]21C` [Veratramine], the remaining activity at 3.75 µM in assay [1] (Well no.=3280) turned out to be 102%. Also, the remaining activity at 1.25 µM in assay [2] (Well no.=3280) was 102%.
As for `COc1ccc(C(=O)O[C@H]2CC[C@@]3(C)[C@@H]4CC[C@H]5[C@]6(O)C[C@H](O)[C@@]7(O)[C@@H](CN8C[C@@H](C)CC[C@H]8[C@@]7(C)O)[C@]6(O)C[C@@]53O[C@]24O)cc1OC` [Veratridine], in assay [1] (Well no.=3222), the remaining activity at 3.75 µM is 101%. In addition, in assay [2] (Well no.=3222), the remaining activity at 1.25 µM is 99.9%.
As for `CC(C)(C)c1ccc(S(=O)(=O)Nc2ccc(Cl)cc2C(=O)c2cc[n+]([O-])cc2)cc1` [Vercirnon], the remaining activity at 3.75 µM in assay [1] (Well no.=8645) worked out at 103%. Besides, in assay [2] (Well no.=8645), the remaining activity at 1.25 µM was determined as 103%.
Regarding `COc1ccc2c3c4n(c2c1)[C@H](C=C(C)C)OOC(C)(C)C[C@@H]4N1C(=O)[C@@H]2CCCN2C(=O)[C@]1(O)[C@H]3O` [Verruculogen], in assay [1] (Well no.=3556), the remaining activity at 3.75 µM worked out at 102%. Also, in assay [2] (Well no.=3556), the remaining activity at 1.25 µM turned out to be 98.3%.
As for `CCCCOc1nc(N)c2c(n1)N(Cc1cccc(CN3CCCC3)c1)CC(=O)N2` [Vesatolimod], the remaining activity at 3.75 µM in assay [1] (Well no.=8127) was 102%. The remaining activity at 1.25 µM in assay [2] (Well no.=8127) is 105%.
`COC[C@@H](c1ccc(C(F)(F)F)cc1)N1CCN(C2(C)CCN(C(=O)c3c(C)ncnc3C)CC2)C[C@@H]1C` [Vicriviroc (maleate)]: the remaining activity at 3.75 µM in assay [1] (Well no.=8655) was found to be 103%. In addition, in assay [2] (Well no.=8655), the remaining activity at 1.25 µM stood at 106%.
On to `Nc1ncnc2c1ncn2[C@@H]1O[C@H](CO)[C@@H](O)[C@@H]1O` [Vidarabine], for which the remaining activity at 3.75 µM in assay [1] (Well no.=2046) was determined as 110%; in assay [1] (Well no.=8006), 95.5%. Also, the remaining activity at 1.25 µM in assay [2] (Well no.=2046) was found to be 107%; in assay [2] (Well no.=8006), 93.6%.
Turning to `COc1cccc(-c2ccc(NC(=O)C3=C(C(=O)O)CCC3)c(F)c2)c1` [Vidofludimus], the remaining activity at 3.75 µM in assay [1] (Well no.=8524) is 96.6%. In addition, the remaining activity at 1.25 µM in assay [2] (Well no.=8524) was 99.5%.
Consider `N#Cc1ccc2[nH]cc(CCCCN3CCN(c4ccc5oc(C(N)=O)cc5c4)CC3)c2c1` [Vilazodone (Hydrochloride)], for which the remaining activity at 3.75 µM in assay [1] (Well no.=6286) is 106%. Also, the remaining activity at 1.25 µM in assay [2] (Well no.=6286) amounted to 105%.
In the case of `N#Cc1ccc2[nH]cc(CCCCN3CCN(c4ccc5oc(C(N)=O)cc5c4)CC3)c2c1` [Vilazodone], the remaining activity at 3.75 µM in assay [1] (Well no.=6477) was determined as 89.2%. Further, the remaining activity at 1.25 µM in assay [2] (Well no.=6477) is 90.6%.
As to `N#C[C@@H]1CCCN1C(=O)CNC12CC3CC(CC(O)(C3)C1)C2` [Vildagliptin (LAF-237)], in assay [1] (Well no.=4885), the remaining activity at 3.75 µM is 99.9%. The remaining activity at 1.25 µM in assay [2] (Well no.=4885) is 99.1%.
With `CC[C@]1(O)C[C@@H]2CN(CCc3c([nH]c4ccccc34)[C@@](C(=O)OC)(c3cc4c(cc3OC)N(C)[C@H]3[C@@](O)(C(=O)OC)[C@H](OC(C)=O)[C@]5(CC)C=CCN6CC[C@]43[C@@H]65)C2)C1` [Vinblastine sulfate salt], in assay [1] (Well no.=1288), the remaining activity at 3.75 µM came out at 108%. Besides, the remaining activity at 1.25 µM in assay [2] (Well no.=1288) turned out to be 111%.
With `CC[C@]1(O)C[C@@H]2CN(CCc3c([nH]c4ccccc34)[C@@](C(=O)OC)(c3cc4c(cc3OC)N(C)[C@H]3[C@@](O)(C(=O)OC)[C@H](OC(C)=O)[C@]5(CC)C=CCN6CC[C@]43[C@@H]65)C2)C1` [Vinblastine sulfate], the remaining activity at 3.75 µM in assay [1] (Well no.=3224) amounted to 97.9%. The remaining activity at 1.25 µM in assay [2] (Well no.=3224) amounted to 100%.
With `CC[C@]1(O)C[C@@H]2CN(CCc3c([nH]c4ccccc34)[C@@](C(=O)OC)(c3cc4c(cc3OC)N(C)[C@H]3[C@@](O)(C(=O)OC)[C@H](OC(C)=O)[C@]5(CC)C=CCN6CC[C@]43[C@@H]65)C2)C1` [Vinblastine], the remaining activity at 3.75 µM in assay [1] (Well no.=2165) turned out to be 103%. For the same compound, in assay [2] (Well no.=2165), the remaining activity at 1.25 µM was determined as 101%.
As to `CC[C@]12CCCN3CCc4c(n(c5ccccc45)[C@@](O)(C(=O)OC)C1)[C@@H]32` [Vincamine], the remaining activity at 3.75 µM in assay [1] (Well no.=3475) was found to be 102%. For the same compound, the remaining activity at 1.25 µM in assay [2] (Well no.=3475) was 106%.
For `CC[C@]1(O)C[C@H]2CN(CCc3c([nH]c4ccccc34)[C@@](C(=O)OC)(c3cc4c(cc3OC)N(C=O)[C@H]3[C@@](O)(C(=O)OC)[C@H](OC(C)=O)[C@]5(CC)C=CCN6CC[C@]43[C@@H]65)C2)C1` [Vincristine sulfate], the figures for the remaining activity at 3.75 µM in assay [1] (Well no.=1194) and in assay [1] (Well no.=3226) were 97.6% and 105%, respectively. The remaining activity at 1.25 µM in assay [2] (Well no.=1194) worked out at 97.3%; in assay [2] (Well no.=2035), 104%; in assay [2] (Well no.=3226), 102%.
As to `CC[C@]1(O)C[C@@H]2CN(CCc3c([nH]c4ccccc34)[C@@](C(=O)OC)(c3cc4c(cc3OC)N(C)[C@H]3[C@@](O)(C(N)=O)[C@H](O)[C@]5(CC)C=CCN6CC[C@]43[C@@H]65)C2)C1` [Vindesine sulfate], in assay [1] (Well no.=2031), the remaining activity at 3.75 µM came out at 103%. For the same compound, the remaining activity at 1.25 µM in assay [2] (Well no.=2031) stood at 102%.
Take `CCC12C=CCN3CC[C@@]4(c5ccc(OC)cc5N(C)[C@H]4[C@@](O)(C(=O)OC)[C@@H]1OC(C)=O)[C@@H]32` (stereo partly shown) [Vindoline]: in assay [1] (Well no.=3761), the remaining activity at 3.75 µM is 96.6%. The remaining activity at 1.25 µM in assay [2] (Well no.=3761) stood at 96.2%.
For the compound `CC[C@]12C=CCN3CC[C@@]4(c5cc([C@@]6(C(=O)OC)C[C@@H]7C[C@@H](C(C)(F)F)CN(Cc8c6[nH]c6ccccc86)C7)c(OC)cc5N(C)[C@H]4[C@@](O)(C(=O)OC)[C@@H]1OC(C)=O)[C@@H]32` [Vinflunine Tartrate], the remaining activity at 3.75 µM in assay [1] (Well no.=4892) is 94.7%. The remaining activity at 1.25 µM in assay [2] (Well no.=4892) was 95.2%.
In the case of `CCC1=C[C@@H]2CN(C1)Cc1c([nH]c3ccccc13)[C@@](C(=O)OC)(c1cc3c(cc1OC)N(C)[C@H]1[C@@](O)(C(=O)OC)[C@H](OC(C)=O)[C@]4(CC)C=CCN5CC[C@]31[C@@H]54)C2` [Vinorelbine], the results for the remaining activity at 3.75 µM in assay [1] (Well no.=2029) and in assay [1] (Well no.=3763) were 108% and 100%, respectively. Also, the remaining activity at 1.25 µM in assay [2] (Well no.=2029) is 104%; in assay [2] (Well no.=3763) it was 96.8%.
Consider `CCOC(=O)C1=C[C@]2(CC)CCCN3CCc4c(n1c1ccccc41)[C@@H]32` [Vinpocetine], for which the remaining activity at 3.75 µM in assay [1] (Well no.=1432) was 102%; in assay [1] (Well no.=3228), 108%. Besides, the remaining activity at 1.25 µM stood at 99% in assay [2] (Well no.=1432), 98.7% in assay [2] (Well no.=2158) and 103% in assay [2] (Well no.=3228).
On to `Cc1cc(Cn2nnc3c(-c4ccco4)nc(N)nc32)ccc1N` [Vipadenant], for which the remaining activity at 3.75 µM in assay [1] (Well no.=8603) stood at 92.7%. Besides, the remaining activity at 1.25 µM in assay [2] (Well no.=8603) is 95.2%.
